The term IC50 denotes the midpoint of a concentration-inhibition curve. What is called inhibition is the change of the read-out against control, counted positive when it falls.

Where a name gives a salt, the structure may show the parent alone. *1 amine or outer side, *2 acyl side, *3 side chain or, on linkers, in order; H or OH if unused. Where a SMILES comes first, the peptide text is derived from it. [ ]: non-standard residue; d: D form. The star is where a group is joined. Ahppa(3S,4S) = O=C(C[C@H](O)[C@H](Cc1ccccc1)N[*:1])[*:2]; dNMeF = CN[C@H](Cc1ccccc1)C(=O)O; NMeQ = CN[C@@H](CCC(N)=O)C(=O)O; Cbz = O=C(OCc1ccccc1)*

One data set addresses T1, Cathepsin E (Homo sapiens, UniProt P14091).
T1 sequence (P14091 whole entry): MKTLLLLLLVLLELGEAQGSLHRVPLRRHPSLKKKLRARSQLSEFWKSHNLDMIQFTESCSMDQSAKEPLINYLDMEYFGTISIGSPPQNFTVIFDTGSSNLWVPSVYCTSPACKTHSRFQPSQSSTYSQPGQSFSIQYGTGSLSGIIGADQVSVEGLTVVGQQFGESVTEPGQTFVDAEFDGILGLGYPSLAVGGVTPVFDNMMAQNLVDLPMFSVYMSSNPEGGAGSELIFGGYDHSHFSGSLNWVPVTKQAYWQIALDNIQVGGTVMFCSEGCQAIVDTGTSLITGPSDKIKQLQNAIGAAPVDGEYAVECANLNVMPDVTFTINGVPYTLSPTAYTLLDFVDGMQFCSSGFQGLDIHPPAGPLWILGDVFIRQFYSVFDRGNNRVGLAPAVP
The data set is described as follows: Inhibition of Cathepsin E (unknown origin) using Mca-Gly-Lys-Pro-Ile-Leu-Phe-Phe-Arg-Leu-Lys-(Dnp)-D-Arg-NH2 as substrate incubated for 120 mins by fluorescence assay.

For a further data set, the target named is Cathepsin D (Homo sapiens, UniProt P07339). Kind of data set: Inhibition of recombinant human liver Cathepsin D using Mca-Gly-Lys-Pro-Ile-Leu-Phe-Phe-Arg-Leu-Lys-(Dnp)-D-Arg-NH2 as substrate incubated for 120 mins by fluorescence assay.
The next data set addresses Beta-secretase 1 (Homo sapiens, UniProt P56817). The data set is described as follows: Inhibition of BACE1 (unknown origin) using Mca-Ser-Glu-Val-Asn-Leu-Asp-Ala-Glu-Phe-Arg-Lys(Dnp)-Arg-Arg-NH2 as substrate incubated for 120 mins by fluorescence assay.
The test system of data set [1] is MDA-MB-231. Kind of data set: Antiproliferative activity against human MDA-MB-231 cells assessed as reduction in cell viability after 72 hrs by CCK-8 assay. In kind it is functional, cell-based. The following applies: MDA-MB-231, 72 h. (In general: Tetrazolium dyes change colour on reduction, which living cells bring about.)
For another data set, the system named is HepG2. Kind of data set: Antiproliferative activity against human HepG2 cells assessed as reduction in cell viability after 72 hrs by CCK-8 assay. It is filed as functional, cell-based. The following applies: HepG2, 72 h.
A short description of data set [2]: Drug uptake in human MDA-MB-231 cells assessed as increase in internalization at 10 uM after 16 to 24 hrs by LTG/Hoechst 33258 staining based confocal laser scanning microscopy. The following applies: mda-mb-231, 10 µM, time 16-24 hrs. It is filed as ADME, cell-based.
Another data set has as its system A549. Kind of data set: Antiproliferative activity against human A549 cells assessed as reduction in cell viability after 72 hrs by CCK-8 assay. In kind it is functional, cell-based. The settings on record: A549, 72 h.
Data set [3] deals with MDA-MB-231. Kind of data set: Antiproliferative activity against human MDA-MB-231 cells assessed as reduction in cell viability at 10 uM after 72 hrs by CCK-8 assay relative to control. In kind it is functional.
Data set [4] can be described thus: Drug uptake in human MDA-MB-231 cells assessed as increase in co-localization with lysosomal at 10 uM after 16 hrs by LTG/Hoechst 33258 staining based confocal laser scanning microscopy. It is filed as ADME, cell-based. The following applies: mda-mb-231, 16 h.
Data set [5] in a line: Drug uptake in human MDA-MB-231 cells assessed as increase in internalization at 10 uM after 3 to 24 hrs by LTG/Hoechst 33258 staining based confocal laser scanning microscopy. The following applies: mda-mb-231, 10 µM, time 3-24 hrs. In kind it is ADME, cell-based.

Sequence of Cathepsin D (P07339 65-162 limits assumed): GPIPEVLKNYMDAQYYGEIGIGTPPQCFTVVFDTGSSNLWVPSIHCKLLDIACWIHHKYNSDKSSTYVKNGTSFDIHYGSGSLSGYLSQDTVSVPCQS
Sequence of Cathepsin D (P07339 169-412 limits assumed): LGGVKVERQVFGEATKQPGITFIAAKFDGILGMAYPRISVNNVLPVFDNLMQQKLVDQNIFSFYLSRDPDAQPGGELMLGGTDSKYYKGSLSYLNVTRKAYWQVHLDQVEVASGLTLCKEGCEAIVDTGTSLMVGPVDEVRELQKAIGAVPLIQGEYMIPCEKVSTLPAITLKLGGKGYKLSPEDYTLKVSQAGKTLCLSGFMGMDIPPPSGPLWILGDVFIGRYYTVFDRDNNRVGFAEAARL
Sequence of Beta-secretase 1 (P56817 whole entry): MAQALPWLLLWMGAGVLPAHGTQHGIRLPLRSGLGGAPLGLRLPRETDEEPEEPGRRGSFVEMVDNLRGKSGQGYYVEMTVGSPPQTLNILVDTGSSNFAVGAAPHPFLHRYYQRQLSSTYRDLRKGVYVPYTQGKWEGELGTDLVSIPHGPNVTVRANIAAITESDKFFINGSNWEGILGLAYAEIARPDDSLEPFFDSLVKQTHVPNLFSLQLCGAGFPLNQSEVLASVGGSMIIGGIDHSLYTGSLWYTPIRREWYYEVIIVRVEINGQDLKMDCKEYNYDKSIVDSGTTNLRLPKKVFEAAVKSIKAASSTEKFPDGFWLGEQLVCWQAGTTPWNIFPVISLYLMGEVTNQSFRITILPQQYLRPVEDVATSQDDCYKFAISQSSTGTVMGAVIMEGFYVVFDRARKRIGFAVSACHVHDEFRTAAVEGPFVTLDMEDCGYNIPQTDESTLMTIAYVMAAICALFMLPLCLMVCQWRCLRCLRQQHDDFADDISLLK

Turning to `CC(C)C[C@H](NC(=O)C[C@H](O)[C@H](Cc1ccccc1)NC(=O)[C@H](CCC(N)=O)N(C)C(=O)[C@@H](NC(=O)OCc1ccccc1)C(C)C)C(=O)N[C@@H](C)C(=O)N(C)[C@H](Cc1ccc(OC(C)(C)C)cc1)C(=O)N1CCC[C@H]1C(=O)O`, the half-inhibitory concentration (IC50) came to 187 nM on Cathepsin E and 19 nM on Cathepsin D.
For `CC(C)C[C@H](NC(=O)C[C@H](O)[C@H](Cc1ccccc1)NC(=O)[C@H](CCC(N)=O)N(C)C(=O)[C@@H](NC(=O)OCc1ccccc1)C(C)C)C(=O)N[C@@H](C)C(=O)N(C)[C@H](Cc1ccccc1)C(=O)N1CCC[C@H]1C(=O)NCCOCCOCCn1cc(CNC(=O)[C@H](CCCCNC(=O)[C@H](CCCCN)NC(=O)[C@H](CCCCN)NC(=O)[C@H](CCC(N)=O)NC(=O)[C@H](CO)NC(=O)CCN2c3ccccc3C(C)(C)[C@]23C=Cc2cc([N+](=O)[O-])ccc2O3)NC(=O)[C@H](CCCCN)NC(=O)[C@H](CCCCN)NC(=O)C(CCC(N)=O)NC(=O)[C@H](CO)NC(=O)CCN2c3ccccc3C(C)(C)[C@]23CCc2cc([N+](=O)[O-])ccc2O3)nn1` (some centres not stated), the IC50 on Beta-secretase 1 was 1030 nM; in the data set with MDA-MB-231 [1], over 10000 nM; in the data set with HepG2 it was over 10000 nM; against Cathepsin E it was 100 nM; on Cathepsin D, 41 nM; in the data set with A549, over 10000 nM. In addition, in data set [2], the Drug uptake result was “Active”. For the same compound, the inhibition at 10 µM with MDA-MB-231 [3] is 49%.
As to `COC(=O)[C@@H]1CCCN1C(=O)[C@@H](Cc1ccc(OC(C)(C)C)cc1)N(C)C(=O)[C@H](C)NC(=O)[C@H](CC(C)C)NC(=O)C[C@H](O)[C@H](Cc1ccccc1)NC(=O)[C@H](CCC(N)=O)N(C)C(=O)[C@@H](NC(=O)OCc1ccccc1)C(C)C`, the IC50 against Cathepsin E turned out to be 105 nM; on Cathepsin D it was 18 nM.
`C#CCNC(=O)[C@H](CCCCNC(=O)[C@H](CCCCN)NC(=O)[C@H](CCCCN)NC(=O)[C@H](CCC(N)=O)NC(=O)[C@H](CO)NC(=O)CCN1c2ccccc2C(C)(C)[C@]12CCc1cc([N+](=O)[O-])ccc1O2)NC(=O)[C@H](CCCCN)NC(=O)[C@H](CCCCN)NC(=O)C(CCC(N)=O)NC(=O)[C@H](CO)NC(=O)CCN1c2ccccc2C(C)(C)[C@]12CCc1cc([N+](=O)[O-])ccc1O2` (some centres not stated): the Drug uptake entry in data set [4] and in [5] was “Active” in each case.
In the case of `COc1cccc2c1C(=O)c1c(O)c3c(c(O)c1C2=O)C[C@@](O)(C(=O)CO)C[C@@H]3O[C@H]1C[C@H](N)[C@H](O)[C@H](C)O1` [DOXORUBICIN HYDROCHLORIDE], the 50% inhibitory concentration (IC50) in the data set with MDA-MB-231 [1] turned out to be 370 nM; in the data set with A549, 400 nM. For the same compound, the inhibition at 10 µM in the data set with MDA-MB-231 [3] turned out to be 70%.
Consider `CC(C)C[C@H](NC(=O)C[C@H](O)[C@H](Cc1ccccc1)NC(=O)[C@H](CCC(N)=O)N(C)C(=O)[C@@H](NC(=O)OCc1ccccc1)C(C)C)C(=O)N[C@@H](C)C(=O)N(C)[C@H](Cc1ccc(O)cc1)C(=O)N1CCC[C@H]1C(=O)NCCOCCOCCn1cc(CNC(=O)[C@H](CCCCNC(=O)[C@H](CCCCN)NC(=O)[C@H](CCCCN)NC(=O)[C@H](CCC(N)=O)NC(=O)[C@H](CO)NC(=O)CCN2c3ccccc3C(C)(C)[C@]23C=Cc2cc([N+](=O)[O-])ccc2O3)NC(=O)[C@H](CCCCN)NC(=O)[C@H](CCCCN)NC(=O)C(CCC(N)=O)NC(=O)[C@H](CO)NC(=O)CCN2c3ccccc3C(C)(C)[C@]23CCc2cc([N+](=O)[O-])ccc2O3)nn1` (some centres not stated), for which the half-inhibitory concentration (IC50) at Beta-secretase 1 is 828 nM; with MDA-MB-231 [1], 9100 nM; in the data set on HepG2, over 10000 nM; on Cathepsin E, 12 nM; at Cathepsin D, 22 nM; in the data set on A549, over 10000 nM. In addition, the Drug uptake result in data set [2] is reported as “Active”. In the data set on MDA-MB-231 [3], the inhibition at 10 µM amounted to 52%.
Regarding `COC(=O)[C@@H]1CCCN1C(=O)[C@@H](Cc1ccc(O)cc1)N(C)C(=O)[C@H](C)NC(=O)[C@H](CC(C)C)NC(=O)C[C@H](O)[C@H](Cc1ccccc1)NC(=O)[C@H](CCC(N)=O)N(C)C(=O)[C@@H](NC(=O)OCc1ccccc1)C(C)C`, the IC50 is over 10000 nM with MDA-MB-231 [1]; over 10000 nM in the data set with HepG2; 104 nM at Cathepsin E; 0.178 nM at Cathepsin D; over 10000 nM with A549. Also, the inhibition at 10 µM in the data set with MDA-MB-231 [3] is 12%.
On to `COC(=O)[C@@H]1CCCN1C(=O)[C@@H](Cc1ccccc1)N(C)C(=O)[C@H](C)NC(=O)[C@H](CC(C)C)NC(=O)C[C@H](O)[C@H](Cc1ccccc1)NC(=O)[C@H](CCC(N)=O)N(C)C(=O)[C@@H](NC(=O)OCc1ccccc1)C(C)C` (Cbz-V[NMeQ][Ahppa(3S,4S)]LA[dNMeF]P-OMe), for which the IC50 in the data set on MDA-MB-231 [1], in the data set on HepG2 and in the data set on A549 was over 10000 nM each time. Further, the inhibition at 10 µM in the data set with MDA-MB-231 [3] was 14%.
Take `CC(C)C[C@H](NC(=O)C[C@H](O)[C@H](Cc1ccccc1)NC(=O)[C@H](CCC(N)=O)N(C)C(=O)[C@@H](NC(=O)OCc1ccccc1)C(C)C)C(=O)N[C@@H](C)C(=O)N(C)[C@H](Cc1ccccc1)C(=O)N1CCC[C@H]1C(=O)O`: the 50% inhibitory concentration (IC50) against Cathepsin E worked out at 120 nM; on Cathepsin D, 4.89 nM.

For the origin of these results see ChEMBL document CHEMBL5154724, “Cathepsin D inhibitors based on tasiamide B derivatives with cell membrane permeability” (Bioorg Med Chem, 2022).
